US9809623B2, “α4β7 peptide monomer and dimer antagonists” (Protagonist Therapeutics, Inc., priority 2014, dated 2017)
Where two headings read alike, the source gives them in different places. Numbered stars: 1 amine (or outer) side, 2 acyl side, 3 side chain; on linkers, the order of the positions; unused ones are H or OH. Bridge positions count the residues as written; N and C are the ends. Square brackets hold non-standard residues; d marks the D form. Peptide text beside a SMILES is read from it. I, II: the chains in the order shown. ξ: configuration not given here. Phe(4-COOH) = N[C@@H](Cc1ccc(C(=O)O)cc1)C(=O)O; Phe(4-tBu) = CC(C)(C)c1ccc(C[C@H](N)C(=O)O)cc1; Bip = N[C@@H](Cc1ccc(-c2ccccc2)cc1)C(=O)O; 1Nal = N[C@@H](Cc1cccc2ccccc12)C(=O)O; Diglycolyl = O=C(COCC(=O)[*:2])[*:1]; NMeR = CN[C@@H](CCCNC(=N)N)C(=O)O; β3hE = N[C@@H](CCC(=O)O)CC(=O)O; Thr(3ξ) = CC(O)[C@H](N)C(=O)O; NMeK = CN[C@@H](CCCCN)C(=O)O; Pen = CC(C)(S)[C@H](N)C(=O)O; dNMeK = CN[C@H](CCCCN)C(=O)O

Target: T1, α4β7 (Mus musculus, UniProt P26011+Q00651)
T1 construct: host or cells: TK1 mouse T cells
Assay: α4β7 Cell Adhesion Assay (Mouse), TK1 cells
Assay type: cell-based
Method: TK1 cells (ATCC # ATCC-CRL-2396) were cultured in RPMI 1640 with 2 mM L-glutamine adjusted to contain 1.5 g/L sodium bicarbonate, 4.5 g/L glucose, 10 mM HEPES, and 1.0 mM sodium pyruvate (ATCC#30-2001) and supplemented with 0.1 mM non-essential amino acids, (ATCC #30-2116) 0.05 mM 2-mercaptoethanol (Invitrogen #21985) and 10% serum (Fetal Bovine Serum, Invitrogen #16140-071), and Penicillin-Streptomycin (Invitrogen #15140-122) at 100 units of penicillin and 100 μg of streptomycin per ml. The cells were washed two times in DMEM medium (ATCC #30-2002) supplemented with 0.1% BSA, 10 mM HEPES pH 7 and 1 mM MnCl2. The cells were re-suspended in supplemented DMEM medium at a density of 4×10^6 cells/ml.
A Nunc MaxiSorp plate was coated with Recombinant human MAdCAM-1 Fc Chimera (R&D #6065-MC) at 200 ng per well in 100 μl per well in 1×PBS and incubated at 4° C. overnight. The solution was then removed by shaking, blocked with 250 ul per well PBS containing 1% BSA, and incubated at 37° C. for 1 hr. The solution was removed by shaking. DATK 32 (anti-mouse α4β7) and peptides were diluted by serial dilution in a final volume of 50 ul per well (2× concentration). To each well, 50 ul of cells (200,000 cells) are added and the plate is incubated at 37° C., 5% CO2 for 30-45 min to allow cell adhesion. The plate was manually washed three times with supplemented DMEM, 100 ul per wash. After the final wash, 100 ul/well of supplemented DMEM and […] of MTT reagent (ATTC cat#30-1010K) was added to each well. Wells were incubated at 37° C. with 5% CO2 for 2-3 hrs until purple precipitate was visible. 100 μl of Detergent Reagent (ATTC cat#30-1010K) was added to each well. The plate was then wrapped with Para film to prevent evaporation, and left overnight at room temperature in the dark. The plate was shaken for 5 min and the absorbance at 570 nm was measured. To calculate the dose response, the absorbance value of control wells not containing cells was subtracted from each test well.

[1] = Table 3-B, Potency (α4β7), range classes, read-out: α4β7 cell(MU) IC50

T1 sequence (Q00651 34-1039 limits assumed): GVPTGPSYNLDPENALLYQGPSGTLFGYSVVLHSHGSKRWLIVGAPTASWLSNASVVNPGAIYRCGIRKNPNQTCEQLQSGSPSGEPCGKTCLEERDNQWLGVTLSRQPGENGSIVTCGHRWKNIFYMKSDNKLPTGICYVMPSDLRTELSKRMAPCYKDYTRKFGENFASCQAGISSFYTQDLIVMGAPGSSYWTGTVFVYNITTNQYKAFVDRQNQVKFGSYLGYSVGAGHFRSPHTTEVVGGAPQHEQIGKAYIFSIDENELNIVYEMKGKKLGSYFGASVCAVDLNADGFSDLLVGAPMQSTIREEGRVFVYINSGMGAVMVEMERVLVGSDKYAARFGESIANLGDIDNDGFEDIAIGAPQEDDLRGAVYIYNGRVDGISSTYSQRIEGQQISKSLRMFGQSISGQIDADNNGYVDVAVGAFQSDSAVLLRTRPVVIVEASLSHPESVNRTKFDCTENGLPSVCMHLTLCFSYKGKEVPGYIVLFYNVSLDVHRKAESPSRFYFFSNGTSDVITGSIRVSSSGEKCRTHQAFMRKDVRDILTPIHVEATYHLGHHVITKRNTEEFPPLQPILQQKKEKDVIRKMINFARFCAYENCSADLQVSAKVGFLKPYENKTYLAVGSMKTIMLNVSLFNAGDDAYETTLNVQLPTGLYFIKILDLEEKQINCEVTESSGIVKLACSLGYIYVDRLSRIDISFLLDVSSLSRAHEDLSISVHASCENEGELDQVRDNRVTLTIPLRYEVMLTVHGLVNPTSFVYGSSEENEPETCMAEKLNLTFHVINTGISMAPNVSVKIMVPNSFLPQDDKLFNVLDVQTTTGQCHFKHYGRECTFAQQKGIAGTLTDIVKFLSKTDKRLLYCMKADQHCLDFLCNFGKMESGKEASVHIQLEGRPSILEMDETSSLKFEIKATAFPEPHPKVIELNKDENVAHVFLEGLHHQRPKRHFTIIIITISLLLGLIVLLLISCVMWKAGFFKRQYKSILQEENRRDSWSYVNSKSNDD
T1 sequence (P26011 20-806): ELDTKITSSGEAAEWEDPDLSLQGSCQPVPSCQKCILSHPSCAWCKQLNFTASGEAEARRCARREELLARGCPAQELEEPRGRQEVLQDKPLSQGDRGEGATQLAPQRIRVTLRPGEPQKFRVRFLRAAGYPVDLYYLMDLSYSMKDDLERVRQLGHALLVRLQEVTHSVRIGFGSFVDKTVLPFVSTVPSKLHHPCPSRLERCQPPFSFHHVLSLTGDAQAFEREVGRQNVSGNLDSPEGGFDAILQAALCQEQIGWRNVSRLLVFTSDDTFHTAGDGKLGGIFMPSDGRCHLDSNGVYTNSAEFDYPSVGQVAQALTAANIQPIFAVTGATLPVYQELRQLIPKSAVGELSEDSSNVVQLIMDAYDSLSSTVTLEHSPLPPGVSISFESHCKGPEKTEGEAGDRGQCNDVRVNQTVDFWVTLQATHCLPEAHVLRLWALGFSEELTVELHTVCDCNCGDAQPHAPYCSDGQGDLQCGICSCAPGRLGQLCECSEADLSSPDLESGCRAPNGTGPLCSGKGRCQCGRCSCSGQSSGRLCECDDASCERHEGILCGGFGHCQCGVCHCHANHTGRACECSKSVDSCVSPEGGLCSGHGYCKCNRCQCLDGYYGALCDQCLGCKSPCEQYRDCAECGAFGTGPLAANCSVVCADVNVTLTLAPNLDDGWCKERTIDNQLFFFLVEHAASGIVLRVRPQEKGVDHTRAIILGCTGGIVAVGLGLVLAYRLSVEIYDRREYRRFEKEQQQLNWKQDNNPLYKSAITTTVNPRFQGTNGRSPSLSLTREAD

Compound	IC50 [1] [nM]	also measured
CC(=O)N[C@@H]1C(=O)N(C)[C@@H](CCCNC(=N)N)C(=O)N[C@@H](CO)C(=O)N[C@@H](CC(=O)O)C(=O)N[C@@H]([C@@H](C)O)C(=O)N[C@@H](CC(C)C)C(=O)N[C@H](C(=O)N[C@@H](Cc2c[nH]c3ccccc23)C(=O)N[C@@H](CCC(=O)O)C(=O)N(C)[C@@H](CCCCNC(=O)COCC(=O)NCCCC[C@@H](C(N)=O)N(C)C(=O)[C@H](CCC(=O)O)NC(=O)[C@H](Cc2c[nH]c3ccccc23)NC(=O)[C@H]2NC(=O)[C@H](CC(C)C)NC(=O)[C@H]([C@@H](C)O)NC(=O)[C@H](CC(=O)O)NC(=O)[C@H](CO)NC(=O)[C@H](CCCNC(=N)N)N(C)C(=O)[C@@H](NC(C)=O)C(C)(C)SSC2(C)C)C(N)=O)C(C)(C)SSC1(C)C [compound 215, [Ac-Pen-(N-Me-Arg)-Ser-Asp-Thr-Leu-Pen-Trp-Glu-(N-Me-Lys)-NH2]2-DIG] (I: Ac-[Pen][NMeR]SDTL[Pen]WE[NMeK]-NH2 / II: Ac-[Pen][NMeR]SDTL[Pen]WE[NMeK]-NH2; disulfide I:1-I:7, II:1-II:7 (inferred); linker I:10-II:10 via Diglycolyl (inferred))		IC50 (Table 4-B, read-out: Cell Adhesion α4β7 Mouse IC50): 0.9 nM
CC(=O)N[C@@H]1C(=O)N(C)[C@@H](CCCNC(=N)N)C(=O)N[C@@H](CO)C(=O)N[C@@H](CC(=O)O)C(=O)N[C@@H](C(C)O)C(=O)N[C@@H](CC(C)C)C(=O)N[C@H](C(=O)N[C@@H](Cc2ccc(C(C)(C)C)cc2)C(=O)N[C@@H](CCC(=O)O)CC(=O)N[C@H](CCCCNC(=O)COCC(=O)NCCCC[C@@H](NC(=O)C[C@H](CCC(=O)O)NC(=O)[C@H](Cc2ccc(C(C)(C)C)cc2)NC(=O)[C@H]2NC(=O)[C@H](CC(C)C)NC(=O)[C@H](C(C)O)NC(=O)[C@H](CC(=O)O)NC(=O)[C@H](CO)NC(=O)[C@H](CCCNC(=N)N)N(C)C(=O)[C@@H](NC(C)=O)C(C)(C)SSC2(C)C)C(N)=O)C(N)=O)C(C)(C)SSC1(C)C (stereo partly drawn) [Peptide X, [Ac-Pen-(N-Me-Arg)-Ser-Asp-Thr-Leu-Pen-(Phe(4-tBu))-(β-homoGlu)-(D-Lys)]2-DIG] (I: Ac-[Pen][NMeR]SD[Thr(3ξ)]L[Pen][Phe(4-tBu)][β3hE][dK]-NH2 / II: Ac-[Pen][NMeR]SD[Thr(3ξ)]L[Pen][Phe(4-tBu)][β3hE][dK]-NH2; disulfide I:1-I:7, II:1-II:7; linker I:10-II:10 via Diglycolyl)		IC50 (mouse T cell TK1, read-out: IC50 for blocking adhesion of TK1 cell line to MAdCAM-1): 0.5 nM
CC(=O)N[C@@H]1C(=O)N(C)[C@@H](CCCNC(=N)N)C(=O)N[C@@H](CO)C(=O)N[C@@H](CC(=O)O)C(=O)N[C@@H]([C@@H](C)O)C(=O)N[C@@H](CC(C)C)C(=O)N[C@H](C(=O)N[C@@H](Cc2ccc(C(C)(C)C)cc2)C(=O)N[C@@H](CCC(=O)O)CC(=O)O)C(C)(C)SSC1(C)C [compound 152] (Ac-[Pen][NMeR]SDTL[Pen][Phe(4-tBu)][β3hE]-OH; disulfide 1-7)	< 10	
CC(=O)N[C@@H]1C(=O)N(C)[C@@H](CCCNC(=N)N)C(=O)N[C@@H](CO)C(=O)N[C@@H](CC(=O)O)C(=O)N[C@@H]([C@@H](C)O)C(=O)N[C@@H](CC(C)C)C(=O)N[C@H](C(=O)N[C@@H](Cc2ccc(C(C)(C)C)cc2)C(=O)N[C@@H](CCC(=O)O)CC(=O)N[C@H](CCCCN)C(N)=O)C(C)(C)SSC1(C)C [compound 153] (Ac-[Pen][NMeR]SDTL[Pen][Phe(4-tBu)][β3hE][dK]-NH2; disulfide 1-7)	10 to 25	
CC(=O)N[C@@H]1C(=O)N(C)[C@@H](CCCNC(=N)N)C(=O)N[C@@H](CO)C(=O)N[C@@H](CC(=O)O)C(=O)N[C@@H]([C@@H](C)O)C(=O)N[C@@H](CC(C)C)C(=O)N[C@H](C(=O)N[C@@H](Cc2ccc(C(=O)O)cc2)C(=O)N[C@@H](CCC(=O)O)CC(=O)N(C)[C@@H](CCCCNC(=O)COCC(=O)NCCCC[C@@H](C(N)=O)N(C)C(=O)C[C@H](CCC(=O)O)NC(=O)[C@H](Cc2ccc(C(=O)O)cc2)NC(=O)[C@H]2NC(=O)[C@H](CC(C)C)NC(=O)[C@H]([C@@H](C)O)NC(=O)[C@H](CC(=O)O)NC(=O)[C@H](CO)NC(=O)[C@H](CCCNC(=N)N)N(C)C(=O)[C@@H](NC(C)=O)C(C)(C)SSC2(C)C)C(N)=O)C(C)(C)SSC1(C)C [compound 148] (I: Ac-[Pen][NMeR]SDTL[Pen][Phe(4-COOH)][β3hE][NMeK]-NH2 / II: Ac-[Pen][NMeR]SDTL[Pen][Phe(4-COOH)][β3hE][NMeK]-NH2; disulfide I:1-I:7, II:1-II:7; linker I:10-II:10 via Diglycolyl)	< 10	
CC(=O)N[C@@H]1C(=O)N(C)[C@@H](CCCNC(=N)N)C(=O)N[C@@H](CO)C(=O)N[C@@H](CC(=O)O)C(=O)N[C@@H]([C@@H](C)O)C(=O)N[C@@H](CC(C)C)C(=O)N[C@H](C(=O)N[C@@H](Cc2ccc(C(C)(C)C)cc2)C(=O)N[C@@H](CCC(=O)O)CC(=O)N(C)[C@@H](CCCCNC(=O)COCC(=O)NCCCC[C@@H](C(N)=O)N(C)C(=O)C[C@H](CCC(=O)O)NC(=O)[C@H](Cc2ccc(C(C)(C)C)cc2)NC(=O)[C@H]2NC(=O)[C@H](CC(C)C)NC(=O)[C@H]([C@@H](C)O)NC(=O)[C@H](CC(=O)O)NC(=O)[C@H](CO)NC(=O)[C@H](CCCNC(=N)N)N(C)C(=O)[C@@H](NC(C)=O)C(C)(C)SSC2(C)C)C(N)=O)C(C)(C)SSC1(C)C [compound 149] (I: Ac-[Pen][NMeR]SDTL[Pen][Phe(4-tBu)][β3hE][NMeK]-NH2 / II: Ac-[Pen][NMeR]SDTL[Pen][Phe(4-tBu)][β3hE][NMeK]-NH2; disulfide I:1-I:7, II:1-II:7; linker I:10-II:10 via Diglycolyl)	< 10	
CC(=O)N[C@@H]1C(=O)N(C)[C@@H](CCCNC(=N)N)C(=O)N[C@@H](CO)C(=O)N[C@@H](CC(=O)O)C(=O)N[C@@H]([C@@H](C)O)C(=O)N[C@@H](CC(C)C)C(=O)N[C@H](C(=O)N[C@@H](Cc2ccc(C(=O)O)cc2)C(=O)N[C@@H](CCC(=O)O)C(=O)N(C)[C@@H](CCCCNC(=O)COCC(=O)NCCCC[C@@H](C(N)=O)N(C)C(=O)[C@H](CCC(=O)O)NC(=O)[C@H](Cc2ccc(C(=O)O)cc2)NC(=O)[C@H]2NC(=O)[C@H](CC(C)C)NC(=O)[C@H]([C@@H](C)O)NC(=O)[C@H](CC(=O)O)NC(=O)[C@H](CO)NC(=O)[C@H](CCCNC(=N)N)N(C)C(=O)[C@@H](NC(C)=O)C(C)(C)SSC2(C)C)C(N)=O)C(C)(C)SSC1(C)C [compound 147] (I: Ac-[Pen][NMeR]SDTL[Pen][Phe(4-COOH)]E[NMeK]-NH2 / II: Ac-[Pen][NMeR]SDTL[Pen][Phe(4-COOH)]E[NMeK]-NH2; disulfide I:1-I:7, II:1-II:7; linker I:10-II:10 via Diglycolyl)	< 10	
CC(=O)N[C@@H]1C(=O)N(C)[C@@H](CCCNC(=N)N)C(=O)N[C@@H](CO)C(=O)N[C@@H](CC(=O)O)C(=O)N[C@@H]([C@@H](C)O)C(=O)N[C@@H](CC(C)C)C(=O)N[C@H](C(=O)N[C@@H](Cc2ccc(-c3ccccc3)cc2)C(=O)N[C@@H](CCC(=O)O)CC(=O)N(C)[C@@H](CCCCNC(=O)COCC(=O)NCCCC[C@@H](C(N)=O)N(C)C(=O)C[C@H](CCC(=O)O)NC(=O)[C@H](Cc2ccc(-c3ccccc3)cc2)NC(=O)[C@H]2NC(=O)[C@H](CC(C)C)NC(=O)[C@H]([C@@H](C)O)NC(=O)[C@H](CC(=O)O)NC(=O)[C@H](CO)NC(=O)[C@H](CCCNC(=N)N)N(C)C(=O)[C@@H](NC(C)=O)C(C)(C)SSC2(C)C)C(N)=O)C(C)(C)SSC1(C)C [compound 150] (I: Ac-[Pen][NMeR]SDTL[Pen][Bip][β3hE][NMeK]-NH2 / II: Ac-[Pen][NMeR]SDTL[Pen][Bip][β3hE][NMeK]-NH2; disulfide I:1-I:7, II:1-II:7; linker I:10-II:10 via Diglycolyl)	< 10	
CC(=O)N[C@@H]1C(=O)N(C)[C@@H](CCCNC(=N)N)C(=O)N[C@@H](CO)C(=O)N[C@@H](CC(=O)O)C(=O)N[C@@H]([C@@H](C)O)C(=O)N[C@@H](CC(C)C)C(=O)N[C@H](C(=O)N[C@@H](Cc2cccc3ccccc23)C(=O)N[C@@H](CCC(=O)O)C(=O)N(C)[C@H](CCCCNC(=O)COCC(=O)NCCCC[C@H](C(N)=O)N(C)C(=O)[C@H](CCC(=O)O)NC(=O)[C@H](Cc2cccc3ccccc23)NC(=O)[C@H]2NC(=O)[C@H](CC(C)C)NC(=O)[C@H]([C@@H](C)O)NC(=O)[C@H](CC(=O)O)NC(=O)[C@H](CO)NC(=O)[C@H](CCCNC(=N)N)N(C)C(=O)[C@@H](NC(C)=O)C(C)(C)SSC2(C)C)C(N)=O)C(C)(C)SSC1(C)C [compound 44] (I: Ac-[Pen][NMeR]SDTL[Pen][1Nal]E[dNMeK]-NH2 / II: Ac-[Pen][NMeR]SDTL[Pen][1Nal]E[dNMeK]-NH2; disulfide I:1-I:7, II:1-II:7; linker I:10-II:10 via Diglycolyl)	< 10	
